Results on six compounds are retold here after article PMC5618341, “Controlled inhibition of methyltransferases using photoswitchable peptidomimetics: towards an epigenetic regulation of leukemia” (Chemical Science, 2017).

Data set [1] has as its target T1, WDR5Δ23 (Homo sapiens, UniProt P61964).
T1 construct: His6-SUMO (N, cleaved yes); made in house; host or cells: E. coli DH5α (so in the source)
The data set can be described thus: Fluorescence polarization (FP)-based competitive binding assay.

The target in data set [2] is MLL1 core complex (MLL1, WDR5, RbBP5, and ASH2L) (Homo sapiens, UniProt P61964). The conditions noted are these: cis vs trans.
Description: To test this, we studied the inhibition of MLL1 H3K4 methyltransferase activity through the previously reported in vitro HMT assay using the MLL1 core complex (i.e. MLL1, WDR5, RbBP5, and ASH2L) and the H3 20mer peptide as substrate.[17]
In Vitro Histone Methyltransferase (HMT) Assay
The HMT assay was performed, as previously described[25] with slight modifications, in 50 mM Tris pH 8.0, 50 mM NaCl, 1.0 mM DTT, 5 mM MgCl2 at room temperature. Each reaction contained 1.5 μM of the cofactor 3H-S-adenosylmethionine (Perkin-Elmer). H31-21 peptide was used as the substrate at 250 μM. […] Reactions were initiated by addition of the H3/SAM and allowed to proceed for 60 min before preparing scintillation counting. To count samples, reactions were spotted on separate squares of P81 filter paper (Millipore) and precipitated by submerging in freshly prepared 50 mM sodium bicarbonate buffer pH = 9.0. After washing and drying, the samples were vortexed in Ultima Gold scintillation fluid and counted.
The nature of data set [3]: Stability against GSH reduction. It is filed as physicochemical. The conditions noted are these: 10 mM GSH, four days, kept in the dark. The method, then: (§1) We then examined the potential of 16 and 17 to control externally the cellular response in proliferation assays. Thus, both isomers of both peptidomimetics were incubated at different concentrations for four days. After two days of incubation, the cells containing the cis isomers were irradiated at 430 nm for 90 seconds in a single isomerization cycle with a custom-made 6-well plate LED array.
H-bond cut off < 3.5 Å, Van der Waals: […]. N 3.81
Evaluation of Stability against GSH-reduction of Peptides
To test the stability of the AMPB-containing peptides 16 and 17 against reduction by glutathione (GSH), the peptides were incubated with GSH for 4 days.
Figure S72. Left: HPLC chromatograms of peptides, incubated with 10 mM GSH, recorded after different time periods. Left: peptide 16. Right: peptide 17. […]
peptides 16 and 17 (10 μM) in 0.1 M phosphate buffer pH = 7 were mixed giving final concentrations of 10 mM of GSH and 9.6 μM of the peptides, respectively. After different time periods, HPLC chromatograms of these mixtures were recorded (gradient: 5-40% B) (Figure […]
In Vitro Methyl Transferase Assay with MLL1 Core Complex
Full length constructs of both, RbBP5 (residues 1−538) and Ash2L (residues 1−635), were used for expression. […] MLL1, WDR5, RbBP5, and ASH2L were expressed as His-SUMO fusions from the pET28A-SUMO vector in BL21 DE3 pLyss codon (+) cells at 16 °C overnight. […]

A short description of data set [4]: Proliferation / cell viability assay (CellTiter-Glo). It is filed as cell-based, mouse. Particulars: trans isomer, 2.5 μM concentration, 96 h; read-out: viable cells. The protocol: We initially studied the cellular uptake and cell viability of our compounds in murine MLL-AF9-transduced mouse bone marrow cells (Fig. 5). In line with our expectations, peptidomimetics 16 and 17 that contained peptide 7 within their sequence are the ones that inhibited the cell proliferation of leukemia. […] Thus, while in the case of the trans isomer of peptidomimetic 16 we already determined less than 50% of viable cells at 2.5 μM concentration, with the WIN-containing conjugates 20 and 21 we measured 87% and 96% of viable cells at 50 μM concentration, respectively.
as §1
MLL-AF9-transduced mouse bone marrow was cultured in IMDM medium + 15% FBS and supplemented with 10 ng/mL interleukin-3 (IL-3) at each passage, every other day.
DMSO) isomers, of peptides 7, 16, 17, as well as the peptides 18 and 19 were diluted from stock to culture media containing a 0.1% DMSO final concentration. For viability assays, […]
72 h and DMSO as control . For the cis-trans group, after 48 h treatment with cis peptides, the plate was irradiated at […] for 90 sec and continued to culture for 2 days in the dark.
Viability was determined using the CellTiter-Glo Kit (Promega) according to the a a ’ d . was monitored on a Molecular Devices plate reader.
For orientation: ATP-based viability assays read luminescence as a measure of living cells.

In data set [5] the test system is Deptor gene (MLL1 target gene). In words: Real-time PCR of Deptor mRNA expression. It counts as cell-based, mouse. Particulars: 10 μM, 96 h, RT-PCR, standardized to GAPDH, vs Mock. The text has this:
Finally, we tested whether our probe acts as an optoepi-genetic inhibitor and controls expression of MLL1 target genes. We used the Deptor gene as a reporter, given its importance in hematopoiesis and leukemogenesis,[51],[52] as well as significant regulation by MLL1 inhibition.[53] To this end, we examined Deptor expression by real-time PCR (RT-PCR). […] Of note, a small but significant (p = 0.008) difference between cis and trans isomers was observed. […] There is no statistically significant difference between cis isomer of 17 and the control.
Fig. 8 Relative Deptor mRNA expression levels in murine MLL-AF9-transduced mouse bone marrow cells after 96 h of incubation at 10 μM; they were analysed by RT-PCR and standardized to the endogenous GAPDH control. The significance is corroborated by the p-value.
Real Time Quantitative PCR Analysis of Deptor Gene
Murine MLL1-AF9 transformed bone marrow cells were obtained by transducing normal murine bone marrow cells with MLL1-AF9 oncogene according to the procedures described […]
100 mM stock) isomers, of peptides 7, 16, 17, as well as the peptides 18 and 19 were […]
The transformed cells were treated with different concentrations of the respective peptide (1.0, 5.0, 10 μM) and Mock (0.1% DMSO), giving a final concentration of 0.1% DMSO in all the samples. […] Relative quantification of each gene transcript was carried out as described previously.[28] […]
In general terms: Quantitative PCR measures a nucleic acid by following its amplification.

Data set [6] concerns the target T1, WDR5Δ23. Also on record: method as in PMID 20575550. Particulars: interaction with WDR5; cited from earlier work.
Setting [7] is: non-irradiated peptide (trans isomer), 72 nM WDR5Δ23, 20 nM tracer 22, read-out: IC50, non-irradiated (trans).
[8] abbreviates: non-irradiated peptide (trans isomer), 72 nM WDR5Δ23, 20 nM tracer 22, read-out: Ki, non-irradiation (trans).

Read-outs that look alike come from different tables or passages of the source. Starred links: 1 amine or outer side, 2 acyl side, 3 side chain; linkers in the order of their positions; H or OH if unused. Non-standard residues stand in square brackets, D forms with d. Residues, ends and D or L forms follow the SMILES beside them. AMPB = O=C(c1ccc(N=Nc2ccc(CN[*:1])cc2)cc1)[*:2]; Ahx = NCCCCCC(=O)O; βAla = NCCC(=O)O Where only a bound is given, the exact number is not on record here.

In the case of `CC(C)C[C@H](NC(=O)[C@H](Cc1c[nH]cn1)NC(=O)[C@@H](NC(=O)c1ccc(N=Nc2ccc(CNC(=O)[C@H](C)NC(=O)[C@H](CCCNC(=N)N)NC(=O)[C@H](C)NC(=O)[C@@H](N)CO)cc2)cc1)C(C)C)C(=O)N[C@@H](CCCNC(=N)N)C(=O)N[C@@H](CCCCN)C(=O)N[C@@H](CO)C(N)=O` [peptide 7, H2N-SARAXVHLRKS-CONH2] (H-SARA[AMPB]VHLRKS-NH2), the IC50 came out at 147 ± 14 nM in data set [1] (IC50 cis (with 5 nM tracer), cis isomer (366 nm), 20 nM WDR5Δ23, 5 nM tracer 22); 57 ± 11 nM in data set [1] (IC50 trans (with 5 nM tracer), trans isomer, 20 nM WDR5Δ23, 5 nM tracer 22); 146 ± 21 nM in data set [1] (setting [7]). Further, the Ki in data set [1] (Ki cis (with 5 nM tracer), cis isomer (366 nm), 20 nM WDR5Δ23, 5 nM tracer 22) was found to be 6.37 ± 1 nM; in data set [1] (Ki trans (with 5 nM tracer), trans isomer, 20 nM WDR5Δ23, 5 nM tracer 22), 2.03 ± 0.42 nM; in data set [1] (setting [8]), 1.25 ± 0.36 nM. Moreover, the “difference in IC50 between both isomers” value in data set [2] is recorded as “more than 15 fold”.

For `CC(C)C[C@H](NC(=O)[C@H](Cc1c[nH]cn1)NC(=O)[C@@H](NC(=O)c1ccc(N=Nc2ccc(CNC(=O)[C@H](C)NC(=O)[C@H](CCCNC(=N)N)NC(=O)[C@H](C)NC(=O)[C@@H](N)CO)cc2)cc1)C(C)C)C(=O)N[C@@H](CCCNC(=N)N)C(=O)N[C@@H](CCCCN)C(=O)N[C@@H](CO)C(=O)N[C@@H](CCCNC(=N)N)C(=O)N[C@@H](CCCNC(=N)N)C(=O)N[C@@H](CCCNC(=N)N)C(=O)N[C@@H](CCCNC(=N)N)C(=O)N[C@@H](CCCNC(=N)N)C(=O)N[C@@H](CCCNC(=N)N)C(=O)N[C@@H](CCCNC(=N)N)C(=O)N[C@@H](CCCNC(=N)N)C(N)=O` [peptide 16, H2N-SARA-AMPB-VHLRKS-R8-NH2] (H-SARA[AMPB]VHLRKSRRRRRRRR-NH2), the IC50 in data set [1] (setting [7]) was found to be 135 ± 5 nM. The Ki in data set [1] (setting [8]) worked out at 1.18 ± 0.095 nM. Also, the “stability of cis isomer against glutathione” value in data set [3] is “suitable cis/trans ratio”. In data set [4], the viability at 2.5 µM is less than 50%.

In the case of `CC(C)C[C@H](NC(=O)[C@H](Cc1c[nH]cn1)NC(=O)[C@@H](NC(=O)c1ccc(N=Nc2ccc(CNC(=O)[C@H](C)NC(=O)[C@H](CCCNC(=N)N)NC(=O)[C@H](C)NC(=O)[C@@H](N)CO)cc2)cc1)C(C)C)C(=O)N[C@@H](CCCNC(=N)N)C(=O)N[C@@H](CCCCN)C(=O)N[C@@H](CO)C(=O)N[C@@H](CCCNC(=N)N)C(=O)NCCCCCC(=O)N[C@@H](CCCNC(=N)N)C(=O)N[C@@H](CCCNC(=N)N)C(=O)NCCCCCC(=O)N[C@@H](CCCNC(=N)N)C(=O)N[C@@H](CCCNC(=N)N)C(=O)NCCCCCC(=O)N[C@@H](CCCNC(=N)N)C(=O)N[C@@H](CCCNC(=N)N)C(=O)NCCCCCC(=O)N[C@@H](CCCNC(=N)N)C(=O)NCCCCCC(=O)NCCC(N)=O` [peptide 17, H2N-SARA-AMPB-VHLRKS-(RahxR)4RAhxB-NH2] (H-SARA[AMPB]VHLRKSR[Ahx]RR[Ahx]RR[Ahx]RR[Ahx]R[Ahx][βAla]-NH2), in data set [1] (setting [7]), the IC50 turned out to be 120 ± 25 nM. Further, the Ki in data set [1] (setting [8]) was found to be 0.925 ± 0.39 nM. Further, the “stability of cis isomer against glutathione” value in data set [3] was “suitable cis/trans ratio”.

On to `N=C(N)NCCC[C@H](NC(=O)[C@H](CCCNC(=N)N)NC(=O)[C@H](CCCNC(=N)N)NC(=O)[C@H](CCCNC(=N)N)NC(=O)[C@H](CCCNC(=N)N)NC(=O)[C@H](CCCNC(=N)N)NC(=O)[C@H](CCCNC(=N)N)NC(=O)[C@@H](N)CCCNC(=N)N)C(N)=O` [peptide 18], for which, in data set [5], the “Deptor mRNA expression (in words)” value is recorded as “not affected”.

`N=C(N)NCCC[C@H](NC(=O)CCCCCNC(=O)[C@H](CCCNC(=N)N)NC(=O)[C@H](CCCNC(=N)N)NC(=O)CCCCCNC(=O)[C@H](CCCNC(=N)N)NC(=O)[C@H](CCCNC(=N)N)NC(=O)CCCCCNC(=O)[C@H](CCCNC(=N)N)NC(=O)[C@H](CCCNC(=N)N)NC(=O)CCCCCNC(=O)[C@@H](N)CCCNC(=N)N)C(=O)NCCCCCC(=O)NCCC(N)=O` [peptide 19] (H-R[Ahx]RR[Ahx]RR[Ahx]RR[Ahx]R[Ahx][βAla]-NH2): the “Deptor mRNA expression (in words)” value in data set [5] is given as “not affected”.

On to Ac-ARAEVHLRKS-NH2 [peptide 2], for which the inhibition constant (Ki) in data set [6] was 3 nM.

As usually defined, the IC50 is the midpoint of a concentration-inhibition curve. A word on the Ki: it is the equilibrium dissociation constant of an inhibitor or competing ligand from its target.
